For one assay, the target named is T1, ASIC1a (Homo sapiens, UniProt P78348).
T1 construct: host or cells: HEK293
T1 sequence (P78348 1-528): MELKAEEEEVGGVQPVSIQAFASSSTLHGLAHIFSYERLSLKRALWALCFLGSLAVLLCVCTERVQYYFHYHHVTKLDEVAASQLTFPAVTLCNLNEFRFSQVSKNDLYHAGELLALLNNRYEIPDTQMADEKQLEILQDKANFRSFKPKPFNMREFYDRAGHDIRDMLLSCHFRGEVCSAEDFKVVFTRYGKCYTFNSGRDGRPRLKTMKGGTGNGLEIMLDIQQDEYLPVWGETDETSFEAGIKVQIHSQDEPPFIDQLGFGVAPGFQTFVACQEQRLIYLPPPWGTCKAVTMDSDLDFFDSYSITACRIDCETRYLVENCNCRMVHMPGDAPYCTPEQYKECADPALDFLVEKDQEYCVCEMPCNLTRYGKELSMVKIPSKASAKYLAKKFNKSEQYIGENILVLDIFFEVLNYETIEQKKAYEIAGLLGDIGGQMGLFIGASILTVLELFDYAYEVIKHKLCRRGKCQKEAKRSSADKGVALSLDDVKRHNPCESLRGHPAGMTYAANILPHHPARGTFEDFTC
Description: FLIPR calcium assay (MES-induced calcium response), ASIC1a expressing HEK293 cells. The format is cell-based. To be noted: HEK cells. On the procedure:
ASIC1a expressing HEK293 cells are grown in culture medium (DMEM with 10% FBS), in polystyrene culture flasks ([…]) at 37° C. in a humidified atmosphere of 5% CO2. Confluency of cells should be 80-90% on day of plating. Cells are rinsed with 10 ml of PBS and cells are re-suspended by addition of culture medium and trituration with a 25 ml pipette.
The cells are seeded at a density of approximately 1×10^6 cells/ml (100 μl/well) in black-walled, clear bottom, 96-well plates pre-treated with 10 mg/l poly-D-lysin (75 μl/well for ≧30 min). Plated cells were allowed to proliferate for 24 h before loading with dye.
Fluo-4/AM (1 mg, Molecular Probes) is added 912 μl DMSO. The Fluo-4/AM stock solution (1 mM) is diluted with culture medium to a final concentration of 2 μM.
The culture medium is aspirated from the wells, and 50 μl of the Fluo-4/AM loading solution is added to each well. The cells are incubated at 37° C. for 30 min.
After the loading period, the loading solution is aspirated and the cells are washed twice with 100 μl modified FLIPR medium (145 mM NaCl, 5 mM KCl, 5 mM CaCl2, 1 mM MgCl2, 10 mM HEPES, pH 7.4) to remove extracellular dye. Following the second wash, 100 μl modified FLIPR medium is added to each well and the fluorescence is measured in FLIPR.
Temperature: Room temperature (20-22° C.)
First addition: 50 μl test solution at a rate of 30 μl/sec and a starting height of […]
Second addition: 50 μl MES solution (20 mM, 5 mM final concentration) at a rate of 35 μl/sec and a starting height of 150 μl.
Reading intervals: pre-incubation—10 sec×7 and 3 sec×3 antagonist phase—3 sec×17 and 10 sec×12
Addition plates (compound test plate and MES plate) are placed on the right and left positions in the FLIPR tray, respectively. Cell plates are placed in the middle position and the ASIC1a program is effectuated. FLIPR will then take the appropriate measurements in accordance with the interval settings above. Fluorescence obtained after stimulation is corrected for the mean basal fluorescence (in modified FLIPR medium). […]

A further assay relates to Male Sprague-Dawley rats. Briefly: Formalin test (flinching behaviour). The format is in vivo, rat. To be noted: 10 mg/kg i.v. 10 min prior to formalin in the hind limb; compared with vehicle; n=8. On the procedure: Male Sprague-Dawley rats (body weight, 180-300 g) are housed together in groups of four animals under standard conditions with unrestricted access to food and water. Rats are housed in the room in which the testing procedure is performed to minimize any stress response to novel environmental cues. All experiments are conducted according to the ethical guidelines for investigations of experimental pain in conscious animals (Zimmerman, 1983).
Separate groups of rats are used for the different experiments such that each animal is used on one occasion only. All experiments for a given compound are performed using age matched animals in an attempt to avoid variability between experiments. Prior to initiation of the formalin test, 4 rats are habituated in separate testing cages for 15-20 min. […] On the basis of the response pattern, two distinct phases of nociceptive behavior are observed, characterized by flinching of the affected paw and scored (Blackburn-Munro et al., Eur J Pharmacol. 2002 Jun. 12;445(3):231-8). […]
All data is analysed using Sigmastat 2.03 statistical software (Jandel Scientific GmbH, Germany) and expressed as mean±S.E.M. Two Way Repeated Measures Analysis of Variance (Two Way RM ANOVA) is used to analyse formalin test data and where applicable, this is followed by post-hoc analysis using Bonferroni's t-test to allow comparisons between groups. […]

For orientation: inhibition means the drop in the measured response relative to a control, in per cent. As a reminder, the IC50 is the point on the concentration scale where inhibition reaches its midpoint. `C=CC1CN2CCC1CC2[C@@H](OC(=O)CCC1CCCC1)c1ccnc2ccccc12` (stereo partly drawn) [Compound A]: the inhibition at 1 µM on ASIC1a (HEK293, at 1 μM, FLIPR) was 30 to 45%. Besides, on ASIC1a (MES-induced calcium response, peak values), the IC50 was in the range of 1000 to 4000 nM. Also, the “flinching behaviour in Formalin test” value with Male Sprague-Dawley rats was “attenuated flinching behaviour”.

(Values after US20070004680A1, “Compositions and methods for modulating gated ion channels” (PainCeptor Pharma Corporation, priority 2004, published 2007).)
